# Results: patent US10328114B2, “Lung injury repair compositions and methods” (University of Iowa Research Foundation, priority 2015, dated 2019)
# Entries after “also recorded” stand apart in the source; their conditions may differ. Like-named read-outs stand apart in the source and are kept apart here. *: point of attachment. Myristoyl = CCCCCCCCCCCCCC(=O)*
# Tests used:
# [1] = system: isolated rat primary alveolar epithelial cells; conditions: hypoxia and diesel exhaust particle in vitro lung injury models, cited from earlier work
# [2] = system: bleomycin induced ALI mouse model; test: Lung collagen deposition (hydroxyproline assay, Masson's trichrome) in bleomycin ALI model; type: in vivo; conditions: for lung fibrosis / lung injury resolution, biochemical and histological evidence: active TGF β, hydroxyproline, Masson staining
# Experimental: Animal protocols were approved by the Institutional Animal Care and Use Committee at the University of Iowa. C57BL/6 mice (Jackson Laboratories, Bar Harbor, Me.) were anesthetized followed by intratracheal instillation of: (A) Control (Ctrl): 1 μl of DMSO (Sigma, St. Louis, Mo.) plus 49 μl of PBS; (B) Bleomycin (Bleo): 1 μl of DMSO plus 49 μl of bleomycin (APP pharmaceuticals, LLC Schaumburg, Ill.) dissolved in PBS (4 U/kg); (C) Bleomycin/PKCζi (Bleo/PKCζi): 1 μg of PKCζi (Calbiochem EMD Biosciences, San Diego, Calif.) solubilized in 1 μl of DMSO plus 49 μl of bleomycin (4 U/Kg) dissolved in PBS (Calbiochem EMD Biosciences, San Diego, Calif.). After this treatment, all mice were instilled (50 μl) every 72 hours with 1 μl of DMSO plus 49 μl of PBS in the Ctrl and Bleo group or with 1 μg of PKCζi dissolved in 1 μl of DMSO plus 49 μl of PBS in the Bleo/PKCζi group for the duration of the experiment. Mice were treated for up to 6 weeks (FIG. 1A). All conditions had between 4 to 6 animals.
# The collagen content in the lung homogenates was determined with a hydroxyproline assay, as described previously (26). In addition, lung collagen deposition was examined in lung sections stained with Masson's trichrome.
substance,measurement,setting,value
N-Myristoyl-Ser-Ile-Tyr-Arg-Arg-Gly-Ala-Arg-Arg-Trp-Arg-Lys-Leu-OH (Myristoyl-SIYRRGARRWRKL-OH; SMILES CCCCCCCCCCCCCC(=O)N[C@@H](CO)C(=O)N[C@H](C(=O)N[C@@H](Cc1ccc(O)cc1)C(=O)N[C@@H](CCCNC(=N)N)C(=O)N[C@@H](CCCNC(=N)N)C(=O)NCC(=O)N[C@@H](C)C(=O)N[C@@H](CCCNC(=N)N)C(=O)N[C@@H](CCCNC(=N)N)C(=O)N[C@@H](Cc1c[nH]c2ccccc12)C(=O)N[C@@H](CCCNC(=N)N)C(=O)N[C@@H](CCCCN)C(=O)N[C@@H](CC(C)C)C(=O)O)[C@@H](C)CC) [PKCζi],alveolar epithelial barrier integrity,[1],prevents the disruption of the epithelial barrier in isolated rat primary alveolar epithelial cells
same,alveolar epithelial barrier integrity,[1]; listed as PKC-ζ inhibitor,preserves the alveolar epithelial barrier
same,collagen lung deposition by Masson's staining,"[2]; FIG. 4C, printed as week 3",decreased collagen lung deposition by masson's staining at week 3 compared to bleomycin group
same,"hydroxyproline content, PKCζi only during the first week",[2]; measured at week 6,increase hydroxyproline content similar to Bleomycin alone group at week 6
same,histological lung collagen deposition,"[2]; three weeks after bleomycin, Example 1",histological evidence of lung collagen deposition
same,lung hydroxyproline concentration,[2]; week 3 post injury,no difference in active TGF β and hydroxyproline concentrations compared to bleomycin group; also recorded: does not decrease hydroxyproline concentration
same,lung hydroxyproline concentration,"[2]; week 3 post injury, listed as PKC-ζi",high concentrations of hydroxyproline
same,"lung fibrosis / lung injury resolution, biochemical and histological evidence",[2]; week 6,demonstrated lung injury resolution in the PKCζi treated group
same,"lung fibrosis / lung injury resolution, biochemical and histological evidence","[2]; week 6, listed as PKC-ζi",total resolution of lung fibrosis in the PKC-ζi treated group
same,lung hydroxyproline concentration,"[2]; week 6, continuous PKCζi treatment",decreased hydroxyproline concentration at week 6 compare to bleomycin group
